# Structures can show the parent of a compound that is named as a salt. Where two headings read alike, the source gives them in different places.
# Experiments:
# acetylcholinesterase = biological target: T1, acetylcholinesterase (Rattus norvegicus, UniProt P37136); test: biochemical; details: read-out: Inhibition of Acetylcholinesterase Activity IC50
# T1 construct: corpora striata dissected free, weighted and homogenized in 19 volumes (approximately 7 mg protein/ml) of 0.05M Phosphate Buffer; from tissue; host or cells: rat brain corpora striata, crude homogenate
# T1 sequence (P37136 32-614): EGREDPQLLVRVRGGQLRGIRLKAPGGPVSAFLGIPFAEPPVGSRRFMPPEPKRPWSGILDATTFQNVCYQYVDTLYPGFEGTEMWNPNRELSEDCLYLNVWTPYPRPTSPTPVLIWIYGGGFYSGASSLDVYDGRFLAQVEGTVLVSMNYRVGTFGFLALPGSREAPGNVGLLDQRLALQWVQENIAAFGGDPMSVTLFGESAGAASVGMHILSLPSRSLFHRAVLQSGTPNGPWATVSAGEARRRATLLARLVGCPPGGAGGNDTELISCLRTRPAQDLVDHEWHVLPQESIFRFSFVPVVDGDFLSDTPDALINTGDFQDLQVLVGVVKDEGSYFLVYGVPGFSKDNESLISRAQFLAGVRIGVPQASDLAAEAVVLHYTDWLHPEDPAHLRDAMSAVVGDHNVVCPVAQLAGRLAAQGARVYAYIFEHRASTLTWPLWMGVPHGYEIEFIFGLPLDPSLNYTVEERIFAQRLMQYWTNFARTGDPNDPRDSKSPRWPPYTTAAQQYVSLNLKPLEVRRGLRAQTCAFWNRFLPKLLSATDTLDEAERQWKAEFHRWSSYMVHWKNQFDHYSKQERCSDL
# Procedure: 1. 0.05M Phosphate Buffer (pH 7.2)
# A solution of monobasic sodium phosphate monohydrate (6.85 g) in distilled water (100 ml) is added to a solution of dibasic sodium phosphate heptahydrate (13.4 g) and distilled water (100 ml) until a pH of 7.2 was attained. The solution was diluted 1 to 10 with distilled water.
# 3. 5,5-Dithiobisnitrobenzoic acid in Buffer
# The 0.05M Phosphate Buffer (pH 7.2) was added to 5.5-dithiobisnitrobenzoic acid to a total volume of 100 ml, i.e., a quantity sufficient (gs) to 100 ml.
# 4. Stock Solution of Drug
# A 2 millimolar stock solution of the test drug is prepared in a quantity sufficient of either acetic acid or dimethyl sulfoxide to volume with 5,5-dithiobisnitrobenzoic acid in Buffer. Stock Solution of Drug is serially diluted (1:10) so that the final cuvette concentration is 10^−4 molar.
# Male Wistar rats are decapitated, brains rapidly removed, corpora striata dissected free, weighted and homogenized in 19 volumes (approximately 7 mg protein/ml) of 0.05M Phosphate Buffer (pH 7.2) using a Potter-Elvejhem homogenizer. A 25 μl aliquot of this suspension is added to 1 ml of the vehicle or various concentrations of the test drug and preincubated for 10 minutes at 37° C. Enzyme activity is measured with a Beckman DU-50 spectrophotometer with the following software and instrument settings:
# Reagents are added to the blank and sample cuvettes as follows:
# Blank values are determined for each run to control for non-enzymatic hydrolysis of substrate and these values are automatically subtracted by the Kindata program available on kinetics soft-pac module. This program also calculates the rate of absorbance change for each cuvette.
# Substrate concentration is 10 millimolar diluted 1:2 in assay yielding final concentration of 5 millimolar. 5,5-dithiobisnitrobenzoicacid concentration is 0.5 millimolar yielding 0.25 millimolar final concentration. [formula]
# IC50 values are calculated from log-probit analysis
# [1] = Male Wistar rat corpora striata homogenate, preincubated 10 minutes at 37° C., acetylthiocholine substrate 5 millimolar final, log-probit analysis
melting point,Compound,IC50 (acetylcholinesterase; [1]) [nM],other results
36 to 43 °C,CCOC(=O)COc1cc(C=O)ccc1OCc1ccccc1,–,–
205 to 208 °C (dec.),"CNC(=O)Oc1ccc(CN2CCc3cc(OC)c(OC)cc3C2)cc1OC (as salt: hydrochloride) [Example 42, 2-[3-Methoxy-4-(methylaminocarbonyloxy)phenylmethyl]-1-(6,7-dimethoxy)-1,2,3,4-tetrahydroisoquinoline Hydrochloride]",–,–
140 to 145 °C,COc1cc(CN2CCN(c3ccccn3)CC2)ccc1OC(=O)N(C)C [Example 40],–,–
55 to 57 °C,COC1(OCCO)CCN(Cc2ccccc2)C1 (stereo not shown),–,–
190 to 193 °C,COc1cc(CN2CCN(c3ccccc3Cl)CC2)ccc1OC(=O)N(C)C.Cl,–,–
220 to 222 °C (dec.),"C#CCOc1cc(CN2CCc3cc(OC)c(OC)cc3C2)ccc1OC (as salt: hydrochloride) [Example 36, 6,7-Dimethoxy-N-[(4-methoxy)-3-(propargyloxy)phenylmethyl]-1,2,3,4-tetrahydroisoquinoline Hydrochloride]",–,–
155 to 157 °C,CNC(=O)Oc1ccc(CN2CCN(c3ccc([N+](=O)[O-])cc3)CC2)cc1OC,–,–
130 to 133 °C,COc1cc(CN2CCN(c3ccccc3F)CC2)ccc1OC(=O)N(C)C,–,–
196 to 206 °C,"COc1cc(CN2CCN(c3ccccc3OC)CC2)ccc1OC(=O)N(C)C (as salt: hydrochloride) [Example 49, 1-[[4-(Dimethylaminocarbonyloxy)-3-(methoxy)phenyl]methyl]-4-(2-methoxyphenyl)piperazine Dihydrochloride]",–,–

# More lines, now with the values behind:
Compound,melting point,IC50 (acetylcholinesterase; [1]) [nM],other results
"COc1cc(CN2CCN(c3ccccn3)CC2)c(Br)cc1OC(=O)N(C)C [Example 67, N-(2-Bromo-4-[dimethylcarbamoyloxy]-5-methoxy)benzyl-N′-(pyridin-2-yl)-piperazine]",–,18,–
C#CCOc1cc(C=O)ccc1OS(C)(=O)=O,81 to 83 °C,–,–
4-(Methylaminocarbonyloxy)-3-(propargyloxy)1-(pyrrolidinomethyl)benzene Citrate [Example 17],–,3.6,–
"CNC(=O)Oc1ccc(CN2CCN(c3ccccn3)CC2)cc1OC [Example 35, 4-[[3-Methoxy-4-(methylaminocarbonyloxy)]phenylmethyl]-1-(pyridin-2-yl)piperazine Hydrochloride Monohydrate]",–,536,–
"COc1cc(C(C)N2CCN(c3ccccn3)CC2)ccc1OC(=O)N(C)C (stereo not shown) [Example 78, 1-[1-(4-N,N-Dimethylcarbamoyloxy-3-methoxyphenyl)ethyl]-4-pyridin-2-yl-piperazine Dihydrochloride]",–,358,–
"CC(c1ccc(OC(=O)N(C)C)c(F)c1)N1CCN(c2ccccn2)CC1 (stereo not shown) [Example 74, 1-[1-(4-N,N-Dimethylcarbamoyloxy-3-fuorophenyl)ethyl]-4-pyridin-2-yl-piperazine]",–,–,IC50 (acetylcholinesterase): 14000 nM
"CNC(=O)Oc1cc(CN2CCN(c3ccccn3)CC2)ccc1OC [Example 38, 4-[[4-Methoxy-3-(methylaminocarbonyloxy)]phenylmethyl]-1-(pyridin-2-yl)piperazine Dihydrochloride]",–,2390,–

# — patent US6479495B1, “Aminoalkylphenol derivatives and related compounds” (priority 1997, dated 2002)
